From patent publication US7189714B2, “N-type calcium channel antagonists for the treatment of pain” (Astrazeneca AB, priority 2000, dated 2007)

biological target: N-type calcium channel (Homo sapiens, UniProt Q00975); test: N-channel FLIPR assay (inhibition of K+-evoked calcium flux in differentiated IMR32 cells); format: cell-based; details: 80 mM K+ stimulus
Sequence (Q00975 whole entry): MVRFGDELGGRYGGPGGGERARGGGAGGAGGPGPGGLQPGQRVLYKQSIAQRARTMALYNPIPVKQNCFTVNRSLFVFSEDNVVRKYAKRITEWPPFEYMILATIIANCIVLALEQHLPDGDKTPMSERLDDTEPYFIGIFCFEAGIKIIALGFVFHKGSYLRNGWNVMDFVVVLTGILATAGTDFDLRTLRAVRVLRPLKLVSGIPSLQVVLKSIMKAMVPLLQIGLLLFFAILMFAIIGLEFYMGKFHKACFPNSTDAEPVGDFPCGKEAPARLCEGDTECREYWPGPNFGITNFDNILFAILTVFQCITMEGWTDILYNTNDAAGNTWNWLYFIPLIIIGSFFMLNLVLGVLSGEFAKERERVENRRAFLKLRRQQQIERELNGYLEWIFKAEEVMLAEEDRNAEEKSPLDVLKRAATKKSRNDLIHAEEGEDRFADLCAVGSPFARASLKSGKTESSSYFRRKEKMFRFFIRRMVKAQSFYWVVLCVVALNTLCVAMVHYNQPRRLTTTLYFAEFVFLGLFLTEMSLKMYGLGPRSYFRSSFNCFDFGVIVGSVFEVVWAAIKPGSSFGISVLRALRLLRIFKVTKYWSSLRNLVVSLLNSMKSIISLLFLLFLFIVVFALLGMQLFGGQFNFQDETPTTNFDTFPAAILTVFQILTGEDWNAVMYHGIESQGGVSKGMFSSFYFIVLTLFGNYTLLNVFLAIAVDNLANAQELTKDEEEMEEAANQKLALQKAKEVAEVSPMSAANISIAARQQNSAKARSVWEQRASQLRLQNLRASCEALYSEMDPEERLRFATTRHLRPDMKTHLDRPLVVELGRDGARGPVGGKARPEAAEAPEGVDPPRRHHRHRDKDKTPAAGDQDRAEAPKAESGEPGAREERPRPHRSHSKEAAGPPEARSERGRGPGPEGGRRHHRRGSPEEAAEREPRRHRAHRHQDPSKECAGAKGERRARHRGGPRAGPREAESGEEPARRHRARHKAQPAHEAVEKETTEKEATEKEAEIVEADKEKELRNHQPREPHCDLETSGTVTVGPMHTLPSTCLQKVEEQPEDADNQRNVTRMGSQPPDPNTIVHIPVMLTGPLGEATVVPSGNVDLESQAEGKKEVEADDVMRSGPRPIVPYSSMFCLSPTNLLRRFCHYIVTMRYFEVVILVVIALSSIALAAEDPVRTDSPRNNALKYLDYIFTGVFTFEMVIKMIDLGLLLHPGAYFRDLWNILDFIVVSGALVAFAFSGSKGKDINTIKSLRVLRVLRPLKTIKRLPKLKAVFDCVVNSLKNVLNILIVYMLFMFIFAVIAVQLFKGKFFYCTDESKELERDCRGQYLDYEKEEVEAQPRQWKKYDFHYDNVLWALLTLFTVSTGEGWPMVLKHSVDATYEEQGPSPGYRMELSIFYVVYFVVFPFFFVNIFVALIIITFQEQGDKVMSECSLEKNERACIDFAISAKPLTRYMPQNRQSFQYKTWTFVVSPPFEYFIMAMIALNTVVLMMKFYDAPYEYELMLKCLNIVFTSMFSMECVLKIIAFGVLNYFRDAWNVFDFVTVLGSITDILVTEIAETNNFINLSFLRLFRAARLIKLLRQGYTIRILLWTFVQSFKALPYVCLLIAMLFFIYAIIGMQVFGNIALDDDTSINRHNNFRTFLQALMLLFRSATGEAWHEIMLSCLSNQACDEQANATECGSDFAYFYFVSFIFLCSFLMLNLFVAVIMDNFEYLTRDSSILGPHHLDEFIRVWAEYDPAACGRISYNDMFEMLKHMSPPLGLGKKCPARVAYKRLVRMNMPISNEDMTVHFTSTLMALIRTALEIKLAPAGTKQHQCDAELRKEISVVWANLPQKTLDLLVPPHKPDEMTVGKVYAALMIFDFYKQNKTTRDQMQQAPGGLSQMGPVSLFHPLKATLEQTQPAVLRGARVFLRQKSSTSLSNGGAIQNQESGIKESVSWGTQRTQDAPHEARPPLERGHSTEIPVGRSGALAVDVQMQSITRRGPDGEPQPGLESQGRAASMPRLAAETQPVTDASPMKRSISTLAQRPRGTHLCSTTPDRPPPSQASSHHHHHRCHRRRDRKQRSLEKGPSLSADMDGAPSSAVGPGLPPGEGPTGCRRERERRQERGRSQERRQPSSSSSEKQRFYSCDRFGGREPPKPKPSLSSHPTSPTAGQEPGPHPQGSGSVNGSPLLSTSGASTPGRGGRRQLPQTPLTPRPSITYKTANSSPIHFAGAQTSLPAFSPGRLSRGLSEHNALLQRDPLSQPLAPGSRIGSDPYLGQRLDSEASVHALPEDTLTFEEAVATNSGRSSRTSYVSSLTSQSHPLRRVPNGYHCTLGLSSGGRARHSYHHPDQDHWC
Sequence (P54289 25-1103 partner): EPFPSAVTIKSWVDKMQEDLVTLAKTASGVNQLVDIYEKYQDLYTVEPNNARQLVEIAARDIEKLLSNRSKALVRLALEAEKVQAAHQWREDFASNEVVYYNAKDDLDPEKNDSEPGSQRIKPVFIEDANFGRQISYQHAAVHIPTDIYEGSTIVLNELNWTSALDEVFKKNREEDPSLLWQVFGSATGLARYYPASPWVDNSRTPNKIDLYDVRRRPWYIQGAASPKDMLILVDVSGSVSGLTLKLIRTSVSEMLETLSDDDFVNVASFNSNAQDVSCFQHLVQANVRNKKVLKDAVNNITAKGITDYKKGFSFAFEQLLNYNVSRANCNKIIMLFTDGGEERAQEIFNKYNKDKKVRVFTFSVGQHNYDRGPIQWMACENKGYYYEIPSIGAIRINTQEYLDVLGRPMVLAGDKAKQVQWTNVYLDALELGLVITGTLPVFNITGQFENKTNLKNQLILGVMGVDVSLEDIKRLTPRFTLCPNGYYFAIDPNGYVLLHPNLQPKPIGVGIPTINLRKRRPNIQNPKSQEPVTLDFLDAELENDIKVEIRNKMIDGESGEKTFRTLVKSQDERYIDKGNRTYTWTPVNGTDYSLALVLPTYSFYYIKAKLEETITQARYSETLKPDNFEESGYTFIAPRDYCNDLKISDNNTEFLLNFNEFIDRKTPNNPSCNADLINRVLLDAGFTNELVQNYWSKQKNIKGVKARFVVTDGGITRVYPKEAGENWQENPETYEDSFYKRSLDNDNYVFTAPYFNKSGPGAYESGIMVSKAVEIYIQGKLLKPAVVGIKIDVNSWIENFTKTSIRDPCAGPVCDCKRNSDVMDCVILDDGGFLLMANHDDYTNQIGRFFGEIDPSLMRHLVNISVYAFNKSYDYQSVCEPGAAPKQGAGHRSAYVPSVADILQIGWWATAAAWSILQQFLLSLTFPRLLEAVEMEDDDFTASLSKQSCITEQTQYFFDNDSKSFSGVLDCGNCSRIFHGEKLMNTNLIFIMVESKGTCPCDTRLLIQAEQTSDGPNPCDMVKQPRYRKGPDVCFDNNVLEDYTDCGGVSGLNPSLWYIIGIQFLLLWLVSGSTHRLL
Sequence (P54284 whole entry partner): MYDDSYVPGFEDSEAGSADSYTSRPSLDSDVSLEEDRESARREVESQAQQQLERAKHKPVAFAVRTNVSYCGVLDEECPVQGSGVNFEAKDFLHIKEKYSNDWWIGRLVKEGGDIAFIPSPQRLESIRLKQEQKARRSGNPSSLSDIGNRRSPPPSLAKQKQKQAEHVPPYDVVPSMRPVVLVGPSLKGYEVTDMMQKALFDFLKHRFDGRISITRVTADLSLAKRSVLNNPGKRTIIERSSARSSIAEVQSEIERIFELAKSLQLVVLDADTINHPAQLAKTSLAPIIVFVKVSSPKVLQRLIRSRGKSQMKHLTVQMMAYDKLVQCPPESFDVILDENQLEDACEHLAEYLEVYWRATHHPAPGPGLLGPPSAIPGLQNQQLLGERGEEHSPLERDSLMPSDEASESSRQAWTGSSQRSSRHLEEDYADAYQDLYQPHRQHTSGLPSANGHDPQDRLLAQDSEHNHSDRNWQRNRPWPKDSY

Row | Compound | IC50 [µM]
1 | 2-(3-Fluorophenyl)-N4-morpholin-4-yl-N6-cyclopropyl-quinoline-4,6-diamine [Example 32] | 6.46
2 | Nc1ccc2nc(-c3ccc(Cl)cc3)cc(N)c2c1 [Example 1, 2-(4-Chlorophenyl)-quinoline-4,6-diamine] | 36.3
3 | Nc1ccc2nc(-c3ccccc3)cc(N)c2c1 [Example 3, 2-Phenyl-quinoline-4,6-diamine] | 17.2
4 | Nc1ccc2nc(-c3ccccc3)cc(NCc3ccccc3)c2c1 [Example 4, 2-Phenyl-N4-benzyl-quinoline-4,6-diamine] | 3.54
5 | Nc1ccc2nc(-c3cccc(C(F)(F)F)c3)cc(N)c2c1 [Example 5, 2-(3-Trifluoromethylphenyl)-quinoline-4,6-diamine] | 5.83
6 | CN(C)c1cc(-c2ccccc2)nc2ccc(N)cc12 [Example 6, 2-Phenyl-N4,N4-dimethyl-quinoline-4,6-diamine] | 6.11
7 | CCCNc1cc(-c2ccccc2)nc2ccc(N)cc12 [Example 7, 2-Phenyl-N4-propyl-quinoline-4,6-diamine] | 1.99
8 | COc1cccc(-c2cc(N)c3cc(N)ccc3n2)c1 [Example 9, 2-(3-Methoxyphenyl)-quinoline-4,6-diamine] | 2.71
9 | Nc1ccc2nc(-c3cccc(F)c3)cc(N)c2c1 [Example 10, 2-(3-Fluorophenyl)-quinoline-4,6-diamine] | 3.81
10 | COc1ccc(-c2cc(N)c3cc(N)ccc3n2)cc1 [Example 11, 2-(4-Methoxyphenyl)-quinoline-4,6-diamine] | 6.91
11 | CCCCCc1cc(N)c2cc(N)ccc2n1 [Example 12, 2-Pentyl-quinoline-4,6-diamine] | 1.89
12 | COc1ccccc1-c1cc(N)c2cc(N)ccc2n1 [Example 13, 2-(2-Methoxyphenyl)-quinoline-4,6-diamine] | 10.5
13 | Nc1ccc2nc(COc3ccccc3)cc(N)c2c1 [Example 14, 2-Phenoxymethyl-quinoline-4,6-diamine] | 2.59
14 | Nc1ccc2nc(-c3ccccc3Cl)cc(N)c2c1 [Example 15, 2-(2-Chlorophenyl)-quinoline-4,6-diamine] | 4.13
15 | Nc1ccc2nc(-c3ccccc3F)cc(N)c2c1 [Example 16, 2-(2-Fluorophenyl)-quinoline-4,6-diamine] | 81.6
16 | Nc1ccc2nc(-c3ccc(C4CCCCC4)cc3)cc(N)c2c1 [Example 19, 2-(4-Cyclohexylphenyl)-quinoline-4,6-diamine] | 7.96
17 | Nc1ccc2nc(-c3ccc(Br)cc3)cc(N)c2c1 [Example 20, 2-(4-Bromophenyl)-quinoline-4,6-diamine] | 3.18
18 | Nc1ccc2nc(-c3cccc(Br)c3)cc(N)c2c1 [Example 21, 2-(3-Bromophenyl)-quinoline-4,6-diamine] | 2.54
19 | CNc1ccc2nc(-c3ccccc3F)cc(N)c2c1 [Example 23, 2-(2-Fluorophenyl)-N6-methyl-quinoline-4,6-diamine] | 3.51
20 | CNc1ccc2nc(-c3cccc(F)c3)cc(N)c2c1 [Example 24, 2-(3-Fluorophenyl)-N6-methyl-quinoline-4,6-diamine] | 2.68

Row | Compound | IC50 [µM]
21 | Nc1ccc2nc(-c3cccc(Cl)c3)cc(N)c2c1 [Example 25, 2-(3-Chlorophenyl)-quinoline-4,6-diamine] | 4.83
22 | CN(C)c1ccc2nc(-c3cccc(F)c3)cc(N(C)C)c2c1 [Example 26, 2-(3-Fluorophenyl)-N4,N4,N6,N6-tetramethyl-quinoline-4,6-diamine] | 4.9
23 | CN(C)c1cc(-c2cccc(F)c2)nc2ccc(N)cc12 [Example 27, 2-(3-Fluorophenyl)-N4,N4-dimethyl-quinoline-4,6-diamine] | 5.55
24 | CNc1ccc2nc(-c3cccc(F)c3)cc(N(C)C)c2c1 [Example 28, 2-(3-Fluorophenyl)-N4,N4,N6-trimethyl-quinoline-4,6-diamine] | 3.81
25 | CN(C)c1cc(-c2cccc(F)c2)nc2ccc(NC3CC3)cc12 [Example 29, 2-(3 -Fluorophenyl)-N4,N4-dimethyl-N6-cyclopropyl-quinoline-4,6-diamine] | 5.44
26 | CC(C)Nc1ccc2nc(-c3cccc(F)c3)cc(N(C)C)c2c1 [Example 33, 2-(3-Fluorophenyl)-N4,N4-dimethyl-N6-isopropyl-quinoline-4,6-diamine] | 2.82
27 | CNc1ccc2nc(-c3cccc(F)c3)cc(NC)c2c1 [Example 37, 2-(3-Fluorophenyl)-N4,N6-dimethyl-quinoline-4,6-diamine] | 2.18
28 | CN(C)c1cc(-c2cccc(F)c2)nc2ccc(N3CCCC3)cc12 [Example 38, 2-(3-Fluorophenyl)-N4,N4-dimethyl-6-pyrrolidin-1-yl-quinolin-4-amine] | 9.15
29 | CNc1cc(-c2cccc(F)c2)nc2ccc(N)cc12 [Example 39, 2-(3-Fluorophenyl)-N4-methyl-quinoline-4,6-diamine] | 4.53
30 | CN(C)c1cc(-c2cccc(F)c2)nc2ccc(Nc3cccc(N)n3)cc12 [Example 40, 2-(3-Fluorophenyl)-N4,N4-dimethyl-N6-(6-amino-pyridin-2-yl)-quinoline-4,6-diamine] | 2.98
31 | CNc1cc(-c2cccc(F)c2)nc2ccc(NC3CC3)cc12 [Example 41, 2-(3-Fluorophenyl)-N4-methyl-N6-cyclopropyl-quinoline-4,6-diamine] | 1.8
32 | Cc1c(Nc2ccc3nc(-c4cccc(F)c4)cc(N(C)C)c3c2)c(=O)n(-c2ccccc2)n1C [Example 44, 2-(3-Fluorophenyl)-N4,N4-dimethyl-N6-4-(1,5-dimethyl-2phenyl-1,2-dihydro-pyrazol-3-one)quinoline-4,6-diamine] | 5.39
33 | CN(C)c1cc(-c2cccc(F)c2)nc2ccc(NC3CCC3)cc12 [Example 48, 2-(3-Fluorophenyl)-N4,N4-dimethyl-N6-cyclobutyl-quinoline-4,6-diamine] | 7.74
34 | CN(C)c1cc(-c2cccc(F)c2)nc2ccc(NCC3CC3)cc12 [Example 49, 2-(3-Fluorophenyl)-N4,N4-dimethyl-N6-cyclopropylmethyl-quinoline-4,6-diamine] | 5.88
35 | CN(C)c1cc(-c2cccc(F)c2)nc2ccc(NC3CCCC3)cc12 [Example 50, 2-(3-Fluorophenyl)-N4,N4-dimethyl-N6-cyclopentyl-quinoline-4,6-diamine] | 5.9
36 | C=CCNc1ccc2nc(-c3cccc(F)c3)cc(N(C)C)c2c1 [Example 51, 2-(3-Fluorophenyl)-N4,N4-dimethyl-N6-allyl-quinoline-4,6-diamine] | 3.78
37 | CN(C)c1cc(-c2cccc(Cl)c2)nc2ccc(NC3CC3)cc12 [Example 53, 2-(3-Chlorophenyl)-N4,N4-dimethyl-N6-cyclopropyl-quinoline-4,6-diamine] | 7.19
38 | COCCNc1cc(-c2cccc(F)c2)nc2ccc(NC3CC3)cc12 [Example 54, 2-(3-Fluorophenyl)-N4-(2-methoxy-ethyl)-N6-cyclopropyl-quinoline-4,6-diamine] | 1.75
39 | CN(C)c1cc(-c2cccc(N3CCOCC3)c2)nc2ccc(NC3CC3)cc12 [Example 55, 2-(3-Morpholin-4-ylphenyl)-N4,N4-dimethyl-N6-cyclopropyl-quinoline-4,6-diamine] | 2.31
40 | CN(C)c1cc(-c2cccc(N3CCOCC3)c2)nc2ccc(N)cc12 [Example 56, 2-(3-Morpholin-4-ylphenyl)-N4,N4-dimethyl-quinoline-4,6-diamine] | 6.38

tested on: L-type calcium channel; test: L-channel FLIPR assay (SK-N-SH cells); format: cell-based, human; details: L-channel reference on each plate, near IC50; read-out: reference concentration near IC50
Method: An immortalized cell line, SK-N—SH, derived from human neuroblastoma cells (ATCC product # HTB-11) was used for all experiments. Cells were grown in T75 flasks containing Eagle's minimum essential medium (MEM) w/Earle's salts, with 0.1 mM non-essential amino acids, 1.0 mM Na pyruvate and 10% fetal bovine serum (FBS; Cat. # SLM-034-B, Specialty Media). Cells were grown to 100% confluency (by visual microscopic estimation) before sub-culture. Cells were sub-cultured at a ratio of 1:3 by first rinsing with 3 mL PBS, replacing the PBS with PBS containing 0.25% trypsin until the cells detached from the surface. 1 mL of the resulting suspension was then added to a new flask containing 10 mL fresh media. Cells were then incubated (37° C., 5% CO2), and media was exchanged about 3 days after subculturing.
B. Preparation of Cells for Experiments:
Cells used for experiments were at the 100% confluency growth stage. Each flask provided enough cells for three 96-well plates. […]
Maximum signal (L-channel+non-specific): 12 wells received 20 μL buffer addition only (no nitrendipine) in the first solution addition sequence to define the maximal K^+-evoked Ca^2+ increase mediated by L-channels+non-specific (non-L-channel mediated fluorescence increase). The coefficient of variation amongst these wells for the K^+-evoked peak increase in fluorescence units was typically less than 12%. […]

Row | Compound | IC50 [µM]
41 | CCOC(=O)C1=C(C)NC(C)=C(C(=O)OC)C1c1cccc([N+](=O)[O-])c1 (centres unmarked) [nitrendipine] | ~0.03
